Data taken from the C3SDB collision cross section collection.
“And” between values parts separate entries of the source, which are not always exact repeats. Identical values can stand only once.

Details: [M+H-H2O]+; instrument: TW; calibrated with polyalanine and drug standards

Row | Structure (SMILES) | collision cross section (N2)
1 | COC(=O)C[C@H]1C2(C)CC34OC5(C)O[C@@]6([C@H](OC)C(OC(=O)C(C)C)[C@]7(C)C(/C(=C(/OC)C(C)C)C(=O)O[C@H]7c7ccoc7)[C@@]6(O5)[C@H](OC)[C@@]3(OC)C2OC(C)=O)[C@]14C (stereo partly drawn) [CHUKRASIN METHYL ETHER] | 254.2 Å²

Same assay, conditions: [M+H]+; instrument: TW; calibrated with polyalanine and drug standards

Row | Structure (SMILES) | collision cross section (N2)
2 | CC(C)CCCC(C)C1CCC2C3CCC4CC(=O)CCC4(C)C3CCC12C (stereo not drawn) [CHOLESTAN-3-ONE] | 187.2 Å²
3 | O=c1cc(-c2ccccc2)oc2cc(O)cc(O)c12 [CHRYSIN] | 151.7 Å²
4 | CN=C(NC#N)NCCSCc1nc[nH]c1C [CIMETIDINE] | 155.7 Å²
5 | C=C[C@H]1CN2CC[C@H]1C[C@@H]2[C@@H](O)c1ccnc2ccccc12 [CINCHONINE] | 166.3 Å²
6 | O=C(O)c1cn(C2CC2)c2cc(N3CCNCC3)c(F)cc2c1=O [CIPROFLOXACIN] | 185.3 Å² and 173.3 Å²
7 | CN(C)CCCC1(c2ccc(F)cc2)OCc2cc(C#N)ccc21 (stereo not drawn) [CITALOPRAM] | 178.9 Å²
8 | CC1=C2C(=CO[C@H](C)[C@H]2C)C(=O)C(C(=O)O)=C1O [CITRININ] | 150.2 Å²
9 | CC(C)(Oc1ccc(Cl)cc1)C(=O)O [CLOFIBRIC ACID] | 146.6 Å²
10 | COC(=O)[C@H]1[C@H]2C[C@H]3c4[nH]c5ccccc5c4CCN3C[C@@H]2CC[C@@H]1O [CORYNANTHINE] | 186 Å²
11 | C[C@H]1COC2=C1C(=O)C(=O)c1c2ccc2c1CCCC2(C)C [CRYPTOTANSHINONE] | 168 Å²
12 | COc1cc2c(cc1OC)Cc1cc(OC)c(OC)cc1Cc1cc(OC)c(OC)cc1C2 [CYCLOVERATRYLENE] | 213.9 Å²
13 | CC1(C)C(=O)C=C[C@@]2(C)C1CC(=O)[C@]1(C)C2CC[C@@]2(C)[C@H](c3ccoc3)OC(=O)[C@H]3O[C@]321 (stereo partly drawn) [DEACETOXY-7-OXOGEDUNIN] | 196.6 Å²
14 | Cc1c(O)c(=O)ccn1C [DEFERIPRONE] | 123.2 Å²
15 | CC(C)c1ccc2c(c1)CCC1C(C)(C(N)=O)CCCC21C (stereo not drawn) [DEHYDROABIETAMIDE] | 181.1 Å²
16 | COc1ccc2c(c1)OCC(Cc1ccc(OC)c(OC(C)=O)c1)C2=O (stereo not drawn) [DEOXYSAPPANONE B 7,3'-DIMETHYL ETHER ACETATE] | 177.9 Å²
17 | COc1ccc2c(c1)OCC(Cc1ccc(OC)c(OC)c1)C2=O (stereo not drawn) [DEOXYSAPPANONE B TRIMETHYL ETHER] | 176.6 Å²
18 | CC(C)(CO)[C@@H](O)C(=O)NCCCO [DEXPANTHENOL] | 144.1 Å²
19 | CC(=O)Nc1ccc(OC(C)=O)cc1 [DIACETAMATE] | 143.1 Å²
20 | CC(=O)Nc1c(I)c(NC(C)=O)c(I)c(C(=O)O)c1I [DIATRIZOIC ACID] | 176.3 Å²
21 | Oc1ccc(Cl)cc1Cc1cc(Cl)ccc1O [DICHLOROPHENE] | 147.4 Å²
22 | O=c1oc2ccccc2c(O)c1Cc1c(O)c2ccccc2oc1=O [DICUMAROL] | 182 Å²
23 | CCN(CC)C(=O)c1cccc(C)c1 [DIETHYLTOLUAMIDE] | 143.2 Å²
24 | CC(=O)OCC(=O)[C@@]1(OC(C)=O)[C@@H](C)C[C@H]2[C@@H]3C[C@H](F)C4=CC(=O)C=C[C@]4(C)[C@@]3(F)[C@@H](O)C[C@@]21C [DIFLORASONE DIACETATE] | 209.5 Å²
25 | COc1cc(OC)c(-c2c(OC)cc(OC)cc2OC)c(OC)c1 [DIFUCOL HEXAMETHYL ETHER] | 175.2 Å²
26 | C[C@]12CC[C@H](O)C[C@H]1CC[C@@H]1[C@@H]2C[C@@H](O)[C@]2(C)[C@@H](C3=CC(=O)OC3)CC[C@]12O [DIGOXIGENIN] | 195.1 Å²
27 | C[C@H]1O[C@@H](O[C@H]2[C@@H](O)C[C@H](O[C@H]3[C@@H](O)C[C@H](O[C@H]4CC[C@@]5(C)[C@H](CC[C@@H]6[C@@H]5C[C@@H](O)[C@]5(C)[C@@H](C7=CC(=O)OC7)CC[C@]65O)C4)O[C@@H]3C)O[C@@H]2C)C[C@H](O)[C@@H]1O [DIGOXIN] | 322.5 Å²
28 | C[C@@H]1CC[C@@]2(OC1)O[C@H]1C[C@H]3[C@@H]4CC=C5C[C@@H](O)CC[C@]5(C)[C@H]4CC[C@]3(C)[C@H]1[C@@H]2C [DIOSGENIN] | 208.4 Å²

Row | Structure (SMILES) | collision cross section (N2)
29 | CC[C@H]1OC(=O)[C@H](C)[C@@H](O[C@H]2C[C@@](C)(OC)[C@@H](O)[C@H](C)O2)[C@H](C)[C@@H](O[C@@H]2O[C@H](C)C[C@H](N(C)C)[C@H]2O)[C@](C)(O)C[C@@H](C)[C@@H]2N[C@@H](COCCOC)O[C@H]([C@H]2C)[C@]1(C)O [DIRITHROMYCIN] | 284.2 Å²
30 | O=c1[nH]c2ccccc2n1CCCN1CCC(n2c(=O)[nH]c3cc(Cl)ccc32)CC1 [DOMPERIDONE] | 201.8 Å²
31 | O=C(CCCN1CC=C(n2c(=O)[nH]c3ccccc32)CC1)c1ccc(F)cc1 [DROPERIDOL] | 195 Å²
32 | CCOC(=O)COc1ccc2c(=O)cc(-c3ccccc3)oc2c1 [EFLOXATE] | 177.4 Å²
33 | C=CCOC(Cn1ccnc1)c1ccc(Cl)cc1Cl (stereo not drawn) [ENILCONAZOLE] | 165.2 Å²
34 | Oc1ccc([C@H]2Oc3cc(O)cc(O)c3C[C@H]2O)cc1 [EPIAFZELECHIN (2R,3R)(-)] | 159.4 Å²
35 | COc1ccc([C@H]2Oc3cc(OC)cc(OC)c3C[C@H]2O)cc1 [EPIAFZELECHIN TRIMETHYL ETHER] | 170 Å²
36 | O=C(O[C@@H]1Cc2c(O)cc(O)cc2O[C@@H]1c1cc(O)c(O)c(O)c1)c1cc(O)c(O)c(O)c1 [EPIGALLOCATECHIN-3-MONOGALLATE] | 206.1 Å²
37 | Oc1cc(O)c2c(c1)O[C@H](c1cc(O)c(O)c(O)c1)[C@H](O)C2 [EPIGALLOCATECHIN] | 165.5 Å²
38 | CCc1cccc2c3c([nH]c12)C(CC)(CC(=O)O)OCC3 (stereo not drawn) [ETODOLAC] | 164.4 Å²
39 | CC(=O)OC1CCC2(C)C3=C(CC[C@H]2C1(C)C)[C@@]1(C)CC[C@@H]([C@@H](C)CCC=C(C)C)[C@]1(C)CC3 (stereo partly drawn) [EUPHOL ACETATE] | 218 Å²
40 | CC(C)c1c(CN(C)C(C)Cc2ccccc2)n(C)n(-c2ccccc2)c1=O (stereo not drawn) [FAMPROFAZONE] | 190.9 Å²
41 | COc1cc(/C=C/C(=O)O)ccc1O [FERULIC ACID] | 128.8 Å²
42 | CC(C)(C)NC(=O)[C@H]1CC[C@H]2[C@@H]3CC[C@H]4NC(=O)C=C[C@]4(C)[C@H]3CC[C@]12C [FINASTERIDE] | 200 Å²
43 | O=c1c(O)c(-c2ccc(O)c(O)c2)oc2cc(O)ccc12 [FISETIN] | 160.7 Å²
44 | Nc1nc(F)nc2c1ncn2[C@@H]1O[C@H](COP(=O)(O)O)[C@@H](O)[C@@H]1O [FLUDARABINE PHOSPHATE] | 168.8 Å²
45 | CC1(C)O[C@@H]2C[C@H]3[C@@H]4C[C@H](F)C5=CC(=O)C=C[C@]5(C)[C@H]4[C@@H](O)C[C@]3(C)[C@]2(C(=O)CO)O1 [FLUNISOLIDE] | 199.8 Å²
46 | CC(C)C(=O)Nc1ccc([N+](=O)[O-])c(C(F)(F)F)c1 [FLUTAMIDE] | 160 Å²
47 | O=C(O)c1ccccc1OP(=O)(O)O [FOSFOSAL] | 138.4 Å²
48 | Cc1cccc(C)c1NC(=O)c1ccccc1C(=O)O [FTAXILIDE] | 159.2 Å²
49 | Cc1cc(O)c(C=O)c2c1C(=O)Oc1c(COC(=O)/C=C/C(=O)O)c(O)c(C(=O)O)c(C)c1O2 [FUMARPROTOCETRARIC ACID] | 204.5 Å²
50 | O=C1OC(CN2CCOCC2)CN1/N=C/c1ccc([N+](=O)[O-])o1 (stereo not drawn) [FURALTADONE] | 166.9 Å²
51 | O=c1c(O)c(-c2ccccc2)oc2cc(O)cc(O)c12 [GALANGIN] | 154.9 Å²
52 | O=C(O)c1cc(O)c(O)c(O)c1 [GALLIC ACID] | 130.9 Å²
53 | COC(=O)c1c(OC)cc2c(c1C)Oc1c(Cl)c(O)c(Cl)c(C)c1C(=O)O2 [GANGALEOIDIN] | 186.4 Å²
54 | COc1c(N2CCNC(C)C2)c(F)cc2c(=O)c(C(=O)O)cn(C3CC3)c12 (stereo not drawn) [GATIFLOXACIN] | 189.5 Å²
55 | Cc1ccc(S(=O)(=O)NC(=O)NN2CC3CCCC3C2)cc1 (stereo not drawn) [GLICLAZIDE] | 178 Å²

Same assay, conditions: [M+Na]+; instrument: TW; calibrated with polyalanine and drug standards

Row | Structure (SMILES) | collision cross section (N2)
56 | COC(=O)CC[C@@H](C)[C@H]1CC[C@H]2[C@@H]3[C@H](O)C[C@@H]4C[C@H](O)CC[C@]4(C)[C@H]3C[C@H](O)[C@]12C [CHOLIC ACID, METHYL ESTER] | 198.1 Å²
57 | C=C[C@@]1(C)CC(=O)[C@]2(O)[C@@]3(C)[C@@H](O)CCC(C)(C)[C@@H]3[C@H](O)[C@H](OC(C)=O)[C@@]2(C)O1 [COLFORSIN] | 191.9 Å²
58 | CC1(C)C(C=C(Cl)Cl)C1C(=O)OC(C#N)c1cccc(Oc2ccccc2)c1 (stereo not drawn) [CYPERMETHRIN] | 200.6 Å²
59 | C[C@H](CCC(=O)O)[C@H]1CC[C@H]2[C@@H]3CC[C@@H]4C[C@H](O)CC[C@]4(C)[C@H]3C[C@H](O)[C@]12C [DEOXYCHOLIC ACID] | 196.7 Å²
60 | CC(=O)Oc1cc2c(c(C)c1OC(C)=O)CC=C1[C@@]2(C)CC[C@@]2(C)C3C[C@](C)(C(=O)O)CC[C@]3(C)CC[C@]12C (stereo partly drawn) [DIHYDROCELASTRYL DIACETATE] | 219.7 Å²
61 | COC(=O)[C@@H]1OC(=O)C2OC23[C@@]1(C)CCC1[C@@]2(C)CCC(=O)C(C)(C)C2C[C@@H](OC(C)=O)[C@]13C (stereo partly drawn) [DIHYDROGEDUNIC ACID, METHYL ESTER] | 216.6 Å²
62 | O=C1[C@H](CC[C@H](O)c2ccc(F)cc2)[C@@H](c2ccc(O)cc2)N1c1ccc(F)cc1 [EZETIMIBE] | 213.6 Å²
63 | OC[C@@H](O)[C@@H](O[C@@H]1O[C@H](CO)[C@@H](O)[C@H](O)[C@H]1O)[C@H](O)[C@@H](O)CO [GLUCITOL-4-GUCOPYANOSIDE] | 174.3 Å²
